In paper PMC3177608 (ACS chemical biology, 2011):
pIC50: −log10 of the molar value. Several values for one entry are separate records, joined by “and”; a condition that tells them apart may be missing. Equal entries are not always repeated. Entries after “also recorded” stand apart in the source; their conditions may differ.

What was measured:
Kir1.1 = biological target: T1, Kir1.1 (Rattus norvegicus, UniProt P35560); assay: whole cell patch clamp, Kir1.1; format: cell-based
T1 sequence (P35560 1-391): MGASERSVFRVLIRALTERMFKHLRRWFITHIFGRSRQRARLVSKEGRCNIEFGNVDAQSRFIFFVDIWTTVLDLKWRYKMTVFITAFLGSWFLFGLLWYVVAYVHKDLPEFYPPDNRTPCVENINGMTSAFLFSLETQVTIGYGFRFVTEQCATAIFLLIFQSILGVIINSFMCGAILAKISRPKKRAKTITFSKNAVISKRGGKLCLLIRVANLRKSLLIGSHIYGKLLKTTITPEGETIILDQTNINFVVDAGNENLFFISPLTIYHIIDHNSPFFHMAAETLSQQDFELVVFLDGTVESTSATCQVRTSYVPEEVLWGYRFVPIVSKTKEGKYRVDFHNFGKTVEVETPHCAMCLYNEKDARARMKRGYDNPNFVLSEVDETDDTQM

Kir2.1 [1] = biological target: T2, Kir2.1 (Mus musculus, UniProt P35561); assay: whole cell
T2 sequence (P35561 1-428): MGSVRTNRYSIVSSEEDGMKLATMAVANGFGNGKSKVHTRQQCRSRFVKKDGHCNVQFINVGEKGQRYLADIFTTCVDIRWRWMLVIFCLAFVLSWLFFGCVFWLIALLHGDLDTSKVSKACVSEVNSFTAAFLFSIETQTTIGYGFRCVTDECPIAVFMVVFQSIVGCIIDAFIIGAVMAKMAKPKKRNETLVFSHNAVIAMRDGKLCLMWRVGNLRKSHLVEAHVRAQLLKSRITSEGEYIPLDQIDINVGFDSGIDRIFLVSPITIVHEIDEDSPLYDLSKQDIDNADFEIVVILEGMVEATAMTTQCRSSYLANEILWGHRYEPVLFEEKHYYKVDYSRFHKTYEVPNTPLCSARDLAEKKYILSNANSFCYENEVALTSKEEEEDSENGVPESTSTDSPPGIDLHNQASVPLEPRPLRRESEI

KATP channel = settings: read-out: KATP channel IC50; cited from earlier work
C25 N172D = C25 N172D (Mus musculus, UniProt P35561, A121P/A131S/A173S/C101L/C149F/C169V/C89I/D114R/D152E/DEL116-120/E125N/E153Q/F103W/F129M/F98L/G111K/I106V/I137L/I156T/I175M/I176C/I87V/INS113PEFYPPDN/L105V/L108Y/L109V/L90T/L94G/L97F/M160L/M180L/P155A/S124E/S128G/T141V/V102L/V126I/V158I/V161L/V162I/V167L/V179I/V86T/V93L/W104Y); assay: patch clamp, C25 N172D mutant; settings: pH 7.4
hERG = hERG (Homo sapiens, UniProt Q12809); assay: Ricerca Lead Profiling Screen radioligand binding
hKir7.1 = hKir7.1 (Homo sapiens, UniProt O60928); assay: whole cell patch clamp, Kir7.1; settings: IC50 Kir7.1, pH 7.4
2D6 = 2D6 (Homo sapiens, UniProt P10635)
[2] = intrinsic clearance, human
3A4 = 3A4 (Homo sapiens, UniProt P08684); assay: CYP450 inhibition assay
C25 chimera = biological target: T3, C25 chimera (Mus musculus, UniProt P35561, A121P/A131S/A173S/C101L/C149F/C169V/C89I/D114R/D152E/D172N/DEL116-120/E125N/E153Q/F103W/F129M/F98L/G111K/I106V/I137L/I156T/I175M/I176C/I87V/INS113PEFYPPDN/L105V/L108Y/L109V/L90T/L94G/L97F/M160L/M180L/P155A/S124E/S128G/T141V/V102L/V126I/V158I/V161L/V162I/V167L/V179I/V86T/V93L/W104Y); assay: patch clamp, C25 chimera; format: cell-based, mouse/rat; settings: for inhibition of C25 current: pH 7.4
T3 sequence (P35561 with tags, fused parts or gaps V86T/I87V/C89I/L90T/V93L/L94G/L97F/F98L/C101L/V102L/F103W/W104Y/L105V/I106V/L108Y/L109V/G111K/INS113PEFYPPDN/D114R/DEL116-120/A121P/S124E/E125N/V126I/S128G/F129M/A131S/I137L/T141V/C149F/D152E/E153Q/P155A/I156T/V158I/M160L/V161L/V162I/V167L/C169V/D172N/A173S/I175M/I176C/V179I/M180L): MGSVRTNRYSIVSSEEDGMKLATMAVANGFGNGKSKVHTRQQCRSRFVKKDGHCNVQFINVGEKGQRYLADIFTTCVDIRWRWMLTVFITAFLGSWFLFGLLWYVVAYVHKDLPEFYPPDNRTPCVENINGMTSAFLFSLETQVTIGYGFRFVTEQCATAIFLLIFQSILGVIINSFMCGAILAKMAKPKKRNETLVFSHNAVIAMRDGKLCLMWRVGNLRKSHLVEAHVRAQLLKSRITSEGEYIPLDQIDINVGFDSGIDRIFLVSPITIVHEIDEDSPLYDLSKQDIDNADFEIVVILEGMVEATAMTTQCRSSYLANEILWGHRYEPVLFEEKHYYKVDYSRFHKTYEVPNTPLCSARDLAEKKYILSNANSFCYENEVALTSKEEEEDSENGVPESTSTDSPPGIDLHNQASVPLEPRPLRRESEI

N-type calcium channels = N-type calcium channels (Rattus norvegicus, UniProt Q02294); assay: Ricerca Lead Profiling Screen radioligand binding
Kir2.1 [3] = biological target: T2, Kir2.1; assay: inside-out patch, compound applied from intracellular side; format: cell-based; settings: IC50 Kir2.1, inside-out patch, pH 6.5, applied from intracellular side
hKir2.3 = hKir2.3 (Homo sapiens, UniProt P48050); assay: whole cell patch clamp, Kir2.3
[4] = Ricerca Lead Profiling Screen, 68 radioligand binding assays; settings: GPCRs, ion channels and transporters
C25 N172D/M175I/C176I = C25 N172D/M175I/C176I (Mus musculus, UniProt P35561, A121P/A131S/A173S/C101L/C149F/C169V/C89I/D114R/D152E/DEL116-120/E125N/E153Q/F103W/F129M/F98L/G111K/I106V/I137L/I156T/I87V/INS113PEFYPPDN/L105V/L108Y/L109V/L90T/L94G/L97F/M160L/M180L/P155A/S124E/S128G/T141V/V102L/V126I/V158I/V161L/V162I/V167L/V179I/V86T/V93L/W104Y); assay: patch clamp, C25 N172D/M175I/C176I mutant
rKir4.1 = rKir4.1 (Rattus norvegicus, UniProt P49655); assay: whole cell patch clamp, Kir4.1
Kir2.1 D172N = Kir2.1 D172N (Mus musculus, UniProt P35561, D172N); assay: patch clamp, Kir2.1 D172N mutant
hKir2.6 = hKir2.6 (Homo sapiens, UniProt B7U540); assay: whole cell patch clamp, Kir2.6
Kir2.1 D172N/I176C = Kir2.1 D172N/I176C (Mus musculus, UniProt P35561, D172N/I176C); assay: patch clamp, Kir2.1 D172N/I176C mutant
L-type calcium channels = assay: Ricerca Lead Profiling Screen radioligand binding
Kir1.1 N171D/C175I = Kir1.1 N171D/C175I (Rattus norvegicus, UniProt P35560, C175I/N171D); assay: patch clamp, Kir1.1 N171D/C175I mutant
1A2 = 1A2 (Homo sapiens, UniProt P05177)
2C9 = 2C9 (Homo sapiens, UniProt P11712); assay: CYP450 inhibition assay
[5] = PubChem database; cited from earlier work
Kir1.1 N171D = Kir1.1 N171D (Rattus norvegicus, UniProt P35560, N171D); assay: patch clamp, Kir1.1 N171D mutant
[6] = read-out: IC50 Kir2.1, pH 8.5, manual patch clamp
[7] = pH 7.4, read-out: inhibition of C25 current

Sequence of Kir1.1 N171D/C175I (P35560 whole entry N171D/C175I): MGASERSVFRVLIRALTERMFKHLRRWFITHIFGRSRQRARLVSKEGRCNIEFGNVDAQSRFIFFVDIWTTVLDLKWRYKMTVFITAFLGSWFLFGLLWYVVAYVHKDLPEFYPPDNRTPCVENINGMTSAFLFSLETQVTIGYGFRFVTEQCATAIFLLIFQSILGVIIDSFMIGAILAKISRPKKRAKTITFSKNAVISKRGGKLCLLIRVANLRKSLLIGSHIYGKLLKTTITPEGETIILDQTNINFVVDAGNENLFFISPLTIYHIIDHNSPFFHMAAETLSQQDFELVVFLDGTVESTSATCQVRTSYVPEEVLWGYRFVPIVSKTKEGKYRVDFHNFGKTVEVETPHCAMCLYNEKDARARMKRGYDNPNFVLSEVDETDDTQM
Sequence of hKir7.1 (O60928 whole entry): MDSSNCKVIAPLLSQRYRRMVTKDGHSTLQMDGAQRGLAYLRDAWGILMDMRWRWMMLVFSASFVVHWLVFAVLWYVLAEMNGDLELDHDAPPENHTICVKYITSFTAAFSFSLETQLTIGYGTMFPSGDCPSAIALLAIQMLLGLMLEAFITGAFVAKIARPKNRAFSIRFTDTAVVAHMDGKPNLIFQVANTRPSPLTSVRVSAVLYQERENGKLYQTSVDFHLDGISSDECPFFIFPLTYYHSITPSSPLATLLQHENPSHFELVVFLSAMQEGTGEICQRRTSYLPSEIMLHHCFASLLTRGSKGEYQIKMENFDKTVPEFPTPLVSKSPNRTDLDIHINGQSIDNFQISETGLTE
Sequence of Kir1.1 N171D (P35560 whole entry N171D): as the sequence (P35560 whole entry N171D/C175I) above, with I175C counted along it
Sequence of hERG (Q12809 whole entry): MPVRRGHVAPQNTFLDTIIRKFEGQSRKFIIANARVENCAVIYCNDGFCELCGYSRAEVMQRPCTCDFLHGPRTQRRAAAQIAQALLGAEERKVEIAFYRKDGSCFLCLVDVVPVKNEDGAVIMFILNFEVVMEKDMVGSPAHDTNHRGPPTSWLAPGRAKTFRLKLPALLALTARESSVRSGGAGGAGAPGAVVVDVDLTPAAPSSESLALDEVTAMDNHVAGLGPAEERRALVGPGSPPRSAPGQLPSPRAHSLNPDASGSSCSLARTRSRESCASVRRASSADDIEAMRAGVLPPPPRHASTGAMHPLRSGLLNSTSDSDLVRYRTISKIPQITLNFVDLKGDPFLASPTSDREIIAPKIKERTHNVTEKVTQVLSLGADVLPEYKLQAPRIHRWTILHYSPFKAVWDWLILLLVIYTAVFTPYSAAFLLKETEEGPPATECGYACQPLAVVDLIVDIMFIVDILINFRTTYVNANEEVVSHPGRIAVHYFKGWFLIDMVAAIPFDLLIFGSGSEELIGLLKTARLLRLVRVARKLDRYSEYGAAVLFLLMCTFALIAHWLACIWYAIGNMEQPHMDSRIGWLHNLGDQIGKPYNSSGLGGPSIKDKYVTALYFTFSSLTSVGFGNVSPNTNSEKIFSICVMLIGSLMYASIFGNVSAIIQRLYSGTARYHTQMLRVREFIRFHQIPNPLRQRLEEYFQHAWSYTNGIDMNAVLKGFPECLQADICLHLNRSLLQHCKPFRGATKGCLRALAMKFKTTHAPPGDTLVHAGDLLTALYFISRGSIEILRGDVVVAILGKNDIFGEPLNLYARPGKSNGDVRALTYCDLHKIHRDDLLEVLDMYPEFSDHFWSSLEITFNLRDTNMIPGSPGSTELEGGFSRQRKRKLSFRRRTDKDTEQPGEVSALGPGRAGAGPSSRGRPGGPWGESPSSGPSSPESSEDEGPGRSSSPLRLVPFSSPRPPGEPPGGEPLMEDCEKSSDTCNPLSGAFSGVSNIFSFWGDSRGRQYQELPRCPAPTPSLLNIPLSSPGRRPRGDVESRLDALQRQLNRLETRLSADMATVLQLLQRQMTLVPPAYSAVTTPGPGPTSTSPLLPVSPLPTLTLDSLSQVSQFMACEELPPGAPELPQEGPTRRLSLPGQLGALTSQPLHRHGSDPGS
Sequence of 2C9 (P11712 whole entry): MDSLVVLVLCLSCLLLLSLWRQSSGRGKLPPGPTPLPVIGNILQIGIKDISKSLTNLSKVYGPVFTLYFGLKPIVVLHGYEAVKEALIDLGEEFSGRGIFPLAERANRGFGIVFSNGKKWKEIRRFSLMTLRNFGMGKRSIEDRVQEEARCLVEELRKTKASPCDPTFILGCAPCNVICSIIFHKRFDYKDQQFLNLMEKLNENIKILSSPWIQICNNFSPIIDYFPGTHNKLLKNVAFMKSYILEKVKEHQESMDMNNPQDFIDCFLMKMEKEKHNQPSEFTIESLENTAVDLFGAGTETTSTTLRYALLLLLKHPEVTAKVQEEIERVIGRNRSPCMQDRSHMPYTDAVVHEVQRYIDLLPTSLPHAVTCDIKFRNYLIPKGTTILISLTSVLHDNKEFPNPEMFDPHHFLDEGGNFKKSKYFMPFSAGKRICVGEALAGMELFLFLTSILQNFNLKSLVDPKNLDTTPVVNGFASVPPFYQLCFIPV
Sequence of 1A2 (P05177 whole entry): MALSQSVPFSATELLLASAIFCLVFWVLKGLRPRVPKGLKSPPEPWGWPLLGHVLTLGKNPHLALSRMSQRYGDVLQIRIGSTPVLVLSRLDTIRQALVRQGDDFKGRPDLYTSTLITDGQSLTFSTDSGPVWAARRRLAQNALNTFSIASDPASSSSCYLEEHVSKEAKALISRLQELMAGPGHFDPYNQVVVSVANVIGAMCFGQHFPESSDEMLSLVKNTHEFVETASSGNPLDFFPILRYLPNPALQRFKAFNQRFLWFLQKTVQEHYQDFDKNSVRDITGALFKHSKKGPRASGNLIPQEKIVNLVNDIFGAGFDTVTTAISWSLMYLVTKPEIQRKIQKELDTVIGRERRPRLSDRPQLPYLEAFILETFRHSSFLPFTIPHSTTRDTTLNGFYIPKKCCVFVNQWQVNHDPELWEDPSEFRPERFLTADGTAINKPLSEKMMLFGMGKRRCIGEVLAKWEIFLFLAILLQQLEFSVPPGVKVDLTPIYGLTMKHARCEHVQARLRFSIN
Sequence of 2D6 (P10635 whole entry): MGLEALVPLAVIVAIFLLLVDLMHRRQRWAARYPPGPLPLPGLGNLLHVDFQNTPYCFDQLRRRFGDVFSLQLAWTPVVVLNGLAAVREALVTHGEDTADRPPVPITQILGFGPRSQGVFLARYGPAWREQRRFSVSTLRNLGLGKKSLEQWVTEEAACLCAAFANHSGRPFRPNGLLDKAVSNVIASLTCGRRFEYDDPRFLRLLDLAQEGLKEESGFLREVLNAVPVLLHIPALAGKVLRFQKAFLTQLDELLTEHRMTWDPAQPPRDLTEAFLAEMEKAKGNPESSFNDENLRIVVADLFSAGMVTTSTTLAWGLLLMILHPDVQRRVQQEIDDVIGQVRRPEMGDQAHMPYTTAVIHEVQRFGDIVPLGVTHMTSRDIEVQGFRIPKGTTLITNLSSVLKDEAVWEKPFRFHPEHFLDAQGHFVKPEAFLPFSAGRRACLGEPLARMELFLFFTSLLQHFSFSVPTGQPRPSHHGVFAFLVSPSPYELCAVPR
Sequence of hKir2.3 (P48050 whole entry): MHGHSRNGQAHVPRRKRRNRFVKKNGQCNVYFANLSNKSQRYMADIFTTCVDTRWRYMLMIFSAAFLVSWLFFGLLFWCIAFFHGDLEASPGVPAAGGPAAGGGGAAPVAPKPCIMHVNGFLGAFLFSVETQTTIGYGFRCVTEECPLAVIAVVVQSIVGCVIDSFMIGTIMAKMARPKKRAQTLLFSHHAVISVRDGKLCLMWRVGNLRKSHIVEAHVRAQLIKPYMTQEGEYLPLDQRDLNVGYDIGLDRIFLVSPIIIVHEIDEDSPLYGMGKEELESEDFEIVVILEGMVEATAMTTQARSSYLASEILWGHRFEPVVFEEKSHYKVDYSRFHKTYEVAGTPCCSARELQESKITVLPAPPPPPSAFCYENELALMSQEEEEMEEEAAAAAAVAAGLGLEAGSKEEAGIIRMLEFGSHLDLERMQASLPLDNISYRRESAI
Sequence of rKir4.1 (P49655 whole entry): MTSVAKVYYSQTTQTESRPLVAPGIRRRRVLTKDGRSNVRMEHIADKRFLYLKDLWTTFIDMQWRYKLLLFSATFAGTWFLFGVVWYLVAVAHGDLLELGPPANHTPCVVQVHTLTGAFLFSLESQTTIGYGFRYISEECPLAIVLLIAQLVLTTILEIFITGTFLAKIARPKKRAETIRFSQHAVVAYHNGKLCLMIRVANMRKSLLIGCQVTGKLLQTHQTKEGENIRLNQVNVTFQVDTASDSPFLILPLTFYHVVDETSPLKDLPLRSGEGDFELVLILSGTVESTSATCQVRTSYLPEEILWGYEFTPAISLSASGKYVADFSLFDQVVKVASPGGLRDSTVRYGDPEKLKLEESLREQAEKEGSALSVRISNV
Sequence of 3A4 (P08684 whole entry): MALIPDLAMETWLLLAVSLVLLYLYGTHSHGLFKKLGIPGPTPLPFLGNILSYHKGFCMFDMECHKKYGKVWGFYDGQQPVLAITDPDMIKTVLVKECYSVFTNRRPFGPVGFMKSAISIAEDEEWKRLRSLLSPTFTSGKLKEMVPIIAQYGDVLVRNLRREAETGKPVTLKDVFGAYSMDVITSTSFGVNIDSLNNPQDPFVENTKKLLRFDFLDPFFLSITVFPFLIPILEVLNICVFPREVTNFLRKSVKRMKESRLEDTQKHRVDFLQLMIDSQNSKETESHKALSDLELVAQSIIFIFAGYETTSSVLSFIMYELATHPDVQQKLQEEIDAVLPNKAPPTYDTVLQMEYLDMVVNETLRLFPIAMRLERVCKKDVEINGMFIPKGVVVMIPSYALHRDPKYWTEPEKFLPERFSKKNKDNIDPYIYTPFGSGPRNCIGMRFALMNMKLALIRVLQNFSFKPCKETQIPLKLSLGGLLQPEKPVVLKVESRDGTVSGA

With [Ba+2] [barium, reference compound] as the compound, how does the “inhibition of Kir1.1” value (Kir1.1; 5 mM) read?
The value was “completely inhibited”.

What about the “inhibition of Kir1.1 current” value (Kir1.1; at the end of the recording) of the same compound?
The value was “over 85%”.

With COc1ccc(CNCc2ccc(Cl)cc2)cc1 [14a] as the compound, how does the pIC50 (Kir2.1 [1]; [6]) read?
Its pIC50 is 6.11.

With COc1ccc(CNCc2ccc(C(C)(C)C)cc2)cc1 [14d] as the compound, how does the pIC50 (Kir2.1 [1]; [6]) read?
The pIC50 was 5.86.

With COc1ccc(CNCc2ccc(Cl)cc2Cl)cc1 [13c] as the compound, how does the pIC50 (Kir2.1 [1]; [6]) read?
Its pIC50 is 5.41.

With COc1ccc(CNCc2cccc(Cl)c2)cc1 [14b] as the compound, how does the pIC50 (Kir2.1 [1]; [6]) read?
Its pIC50 is 5.97.

With COc1ccc(CNCc2ccccc2Cl)cc1 [14j] as the compound, how does the pIC50 (Kir2.1 [1]; [6]) read?
Its pIC50 is 4.86.

With COc1ccc(CNCc2ccccc2C)cc1 [14e] as the compound, how does the pIC50 (Kir2.1 [1]; [6]) read?
The pIC50 was 5.29.

Which results are given for COc1ccc(CNCc2cccc3ccccc23)cc1 [ML133, N-(4-methoxybenzyl)-1-(naphthalen-1-yl)methanamine]?
pIC50 (C25 N172D; IC50 C25 N172D): 4.12; Hill coefficient (NH) C25 N172D (C25 N172D): 2.2; activity at hERG (hERG): inactive; pIC50 (hKir7.1): 4.48; pIC50 (2D6): 6.89; intrinsic clearance [2]: high intrinsic clearance; pIC50 (3A4): < 4.52; inhibition of C25 current (C25 chimera; 30 μM): resistant; inhibition of C25 current (C25 chimera; 100 μM): slightly inhibited; inhibition at 30 µM (C25 chimera; [7]): < 20%; inhibition at 100 µM (C25 chimera; [7]): ~30%; activity at N-type calcium channels (N-type calcium channels): inactive; pIC50 (Kir2.1 [3]): 5.59; pIC50 (hKir2.3): 5.40; ancillary pharmacology in 68-assay radioligand binding panel [4]: clean ancillary pharmacology; also recorded: clean profile; protein bound (protein binding, human): > 99%; pIC50 (C25 N172D/M175I/C176I): 5.24; Hill coefficient (NH) C25 triple mutant (C25 N172D/M175I/C176I; pH 7.4): 1.1; effect on Kir2.1 currents (Kir2.1 [1]; 3 μM, pH 6.5, 20 minute incubation): no significant effect; time to complete inhibition of Kir2.1 (Kir2.1 [1]; 3 μM, pH 8.5): ≤ 5 min; wash out of compound effects (Kir2.1 [1]; 3 μM, pH 8.5): approximately 10 minutes; pIC50 (Kir2.1 [1]; IC50 Kir2.1, pH 6.5, whole cell): 5.00; pIC50 (Kir2.1 [1]; IC50 Kir2.1, pH 8.5, manual patch clamp): 6.54; Hill coefficient (NH) Kir2.1 (Kir2.1 [1]; pH 6.5): 1.8; Hill coefficient (NH) Kir2.1 (Kir2.1 [1]; pH 7.4): 1.7; Hill coefficient (NH) Kir2.1 (Kir2.1 [1]; pH 8.5): 4.0; pIC50 (rKir4.1): 4.12; intrinsic clearance (intrinsic clearance, rat): high intrinsic clearance; Hill coefficient (NH) Kir2.1 D172N (Kir2.1 D172N): 1.3; pIC50 (Kir2.1 D172N; IC50 Kir2.1 D172N, pH 7.4): 4.82 and 4.81; pIC50 (hKir2.6): 5.55; pIC50 (Kir1.1; IC50 Kir1.1 (estimated), pH 8.5): 4.07; pIC50 (Kir1.1; IC50 Kir1.1, pH 7.4): < 3.52; effect on Kir1.1 current (Kir1.1; pH 7.4, up to 300 μM): essentially insensitive; also recorded: not inhibited; Hill coefficient (NH) Kir2.1 D172N/I176C (Kir2.1 D172N/I176C): 1.8; pIC50 (Kir2.1 D172N/I176C; IC50 Kir2.1 D172N/I176C, pH 7.4): 4.35 and 4.36; activity at L-type calcium channels (L-type calcium channels): inactive; Hill coefficient (NH) Kir1.1 N171D/C175I (Kir1.1 N171D/C175I): 2.3; pIC50 (Kir1.1 N171D/C175I): 4.19; pIC50 (1A2): 5.48; pIC50 (2C9): < 4.52; protein bound (protein binding, rat): > 99%; activity in MLPCN HTS assays not based on Kir2.1 [5]: inactive in all but two of 213 MLPCN HTS assays; Hill coefficient (NH) Kir1.1 N171D (Kir1.1 N171D): 1.6; pIC50 (Kir1.1 N171D): 4.08

With COc1ccc(CNCc2ccc(OC)cc2)cc1 [14g] as the compound, how does the pIC50 (Kir2.1 [1]; read-out: IC50 Kir2.1, pH 7.4, whole cell, compound applied extracellularly) read?
Its pIC50 is 4.46.
